Our source for the IC50 values is patent publication US5519051A, “Oxa- or azasteroid derivatives” (Teikoku Hormone Mfg. Co., Ltd., priority 1991, dated 1996).

This assay concerns the target T1, aromatase (Homo sapiens, UniProt P11511).
T1 construct: human placental microsome (one obtained by centrifugation at 105,000); from tissue; host or cells: human placenta, microsomes (washed with dithiothreitol, freeze-dried)
T1 sequence (P11511 1-503): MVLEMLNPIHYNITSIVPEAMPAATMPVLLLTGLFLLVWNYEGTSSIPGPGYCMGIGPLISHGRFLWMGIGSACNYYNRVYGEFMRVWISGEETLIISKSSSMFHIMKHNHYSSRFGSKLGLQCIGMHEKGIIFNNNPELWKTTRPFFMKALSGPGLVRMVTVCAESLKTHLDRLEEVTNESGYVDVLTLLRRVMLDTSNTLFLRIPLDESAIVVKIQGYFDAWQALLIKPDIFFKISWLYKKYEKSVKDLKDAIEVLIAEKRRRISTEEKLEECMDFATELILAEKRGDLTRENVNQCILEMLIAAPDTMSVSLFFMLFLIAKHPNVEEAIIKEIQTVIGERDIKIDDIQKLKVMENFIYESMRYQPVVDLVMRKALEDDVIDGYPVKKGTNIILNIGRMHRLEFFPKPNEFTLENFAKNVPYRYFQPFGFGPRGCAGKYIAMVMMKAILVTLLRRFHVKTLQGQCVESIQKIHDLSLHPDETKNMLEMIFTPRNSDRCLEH
Kind of assay: aromatase inhibition action (3H2O liberated by aromatization of [1,2-3H] androstenedione, human placental microsome). It counts as biochemical. The conditions noted are these: freeze-dried human placental microsome 150 μg; 2 μM [1,2-3H] androstenedione; 180 μM NADPH; pH 7.5; 37° C., 20 minutes. The protocol:
(1) Assay of aromatase inhibition action
According to the method of Ryan (The Journal of Biological Chemistry, 234, 268-272, 1959), human placental microsome (one obtained by centrifugation at 105,000 × g for 60 minutes) was prepared. A microsome was used after being washed twice with 0.5 mM dithiothreitol solution, freeze-driedand stored at -20° C.
Aromatase inhibition action was assayed according to the method developed by Tompson and Siiteri (The Journal of Biological Chemistry, 249, 5373-5378, 1974). The method is to determine the amount of ^3 H2 O liberated by aromatization of [1,2-^3 H] androstenedione. The experiment using the enzyme is carried out in 67 mM phosphate buffer of pH 7.5 so that the amount of the last incubation liquid gets to be 0.5 mi. The incubation liquid contains 180 μM NADPH, 2 μM [1,2-^3 H] androstenedione, 150 μg of the freeze-dried human placental microsome, 25 μl of methanol and a test compound in various concentrations. The incubation is carried out in the air at 37° C. for 20 minutes, 3 ml of chloroform is added to finish the reaction, and then the mixture is stirred for 40 seconds. Then, centrifugation is conducted at 700 × g for 10 minutes, 0.3 ml of the aqueous solution is removed from the supernatant, the scintillation mixture is added, and the amount of ^3 H2 O formed is determined

As usually defined, the IC50 is the concentration at which inhibition is half-maximal.

For the molecule `C[C@]12CCCC=C1CC[C@@H]1[C@@H]2CC[C@]2(C)C(=O)OC[C@@H]12` [Example 3, 16-oxaandrost-4-en-17-one], the IC50 came to 1.2 µM.
To `C[C@]12CCCC=C1CC[C@@H]1[C@@H]2CC[C@]2(C)C(=O)OCC[C@@H]12` [Example 25, D-homo-17-oxaandrost-4-en-17a-one] belongs 0.73 µM.
On to `C[C@]12CCCC=C1[C@@H]1[C@H]([C@@H]3[C@@H]2CC[C@]2(C)C(=O)OCC[C@@H]32)C1(F)F` [Example 28, 6α,7α-difluoromethylene-D-homo-17-oxaandrost-4-en-17a-one], for which the IC50 was determined as 1.3 µM.
Next, `C[C@]12CCC(=O)C(O)=C1CC[C@@H]1[C@@H]2CC[C@]2(C)C(=O)OCC[C@@H]12` [Example 31, 4-hydroxy-D-homo-17-oxaandrost-4-ene-3,17a-dione]: 0.6 µM.
On to `C=C1C[C@@H]2[C@H](CC[C@]3(C)C(=O)OCC[C@@H]23)[C@@]2(C)C=CC(=O)C=C12` [Example 36, 6-methylene-17-oxa-D-homoandrosta-1,4-diene-3,17a-dione], for which the IC50 turned out to be 2.1 µM.
To `C[C@]12CC[C@H]3[C@@H](CC(=O)C4=CC(=O)CC[C@@]43C)[C@@H]1CCOC2` [Example 50, D-homo-17-oxaandrost-4-ene-3,6-dione] belongs 2.7 µM.
In the case of `C[C@]12CC[C@H]3[C@@H](C=CC4=CC(=O)C=C[C@@]43C)[C@@H]1CCOC2` [Example 51, D-homo-17-oxaandrosta-1,4,6-trien-3-one], the IC50 was 2.9 µM.
As for `C[C@]12CC[C@H]3[C@@H](CCC4=C(O)C(=O)CC[C@@]43C)[C@@H]1CCOC2` [Example 56, 4-hydroxy-D-homo-17-oxaandrost-4-en-3-one], the IC50 was determined as 1.9 µM.
